Consider 28 compounds from patent publication US20010044445A1, “AZOLE INHIBITORS OF CYTOKINE PRODUCTION” (priority 1999, published 2001).

What is called IC50 is the concentration at which inhibition is half-maximal.

One assay has as its system Human peripheral blood mononuclear cells. Kind of assay: Human Concanavalin-A Proliferation Assay (Con HU Assay). The conditions noted are these: Homo sapiens, PBMC, concanavalin-A stimulated human PBMC, tritiated thymidine. Format: cell-based. How it is done: Human peripheral blood mononuclear cells were cultured in RPMI 1640 medium supplemented with 10 μg/ml gentamicin, 50 μM 2-mercaptoethanol, 1X MEM non-essential amino acids (Sigma Chemical Co., St. Louis, Mo.), 100 U/ml sodium penicillin G, 100 μg/ml streptomycin sulfate, 2 mM L-glutamine, 1 mM sodium pyruvate (Life Technologies, Grand Island, N.Y.) and 10% fetal bovine serum (Hyclone, Logan, Utah) at 37° C. with 5% CO2.
The procedure in Current Protocols in Immunology, Volume 1, Published by the Greene Publishing Associates and John Wiley & Sons, Inc, Edited by Richard Coico, 1994, hereby incorporated by reference, was followed. Briefly, 50 ml of blood from human volunteers was collected in heparinized syringes and mixed. Blood was diluted 1:1 in Dulbecco's phosphate buffered saline (D-PBS) (Life Technologies, Grand Island, N.Y.) and mixed. PBS-blood mixture was overlaid into 50 ml centrifuge tubes containing 15 ml Histopaque 1077 (Sigma Chemical Co., St. Louis, Mo.) and centrifuged at 500 X G for 30 minutes at room temperature. Cells at the interface from each Histopaque tube were removed and mixed with 5 ml of D-PBS. Each cell suspension was diluted to 50 ml with D-PBS, mixed and centrifuged at 400 X G for 15 minutes at room temperature. After most of the supernatant was removed, cells were resuspended to 40 ml with D-PBS per tube (2 tubes per donor). Cells were centrifuged at 400 X G for 10 minutes at room temperature. Pellets were resuspended in 10 ml of supplemented RPMI 1640 and cell number determined with a Coulter counter. Cells were diluted to a concentration of 0.5×10^6 cells per mL.
The procedure in Current Protocols in Immunology, Volume 1, Published by the Greene Publishing Associates and John Wiley & Sons, Inc, Edited by Richard Coico, 1994, hereby incorporated by reference, was followed. Briefly, test compounds were added to appropriate wells on 96-well tissue culture plates (Corning Glass Works, Corning, N.Y.) in 20 µl of supplemented RPMI 1640. Human peripheral blood mononuclear cells were added to each well in 100 μl volumes (final cell concentration equal to 50,000 cells per well). After 15 minutes, 100 μl of 5 μg/ml concanavalin-A (Sigma Chemical Co., St. Louis, Mo.) in supplemented RPMI 1640 was added to a final concentration of 2.5 μg/ml. Plates were incubated for 3 days at 37° C. with 5% CO2. On day 3, plates were pulsed with 0.5 μCi/well tritiated thymidine (New England Nuclear, Boston, Mass.). After 6 hours, plates were harvested on a Tomatec 96-well havester (Orange, Conn.). Glass filter mats were counted on a Matrix 9600 direct beta counter (Packard, Meriden, Conn.).
The compound `NCc1ccc(C(=O)Nc2ccc(-n3nc(C(F)(F)F)cc3C(F)(F)F)cc2)c(Cl)c1` [Example 294, 4-(aminomethyl)-N-(4-(3,5-bis(trifluoromethyl)-1H-pyrazol-1-yl)phenyl)-2-chlorobenzamide] showed a 50% inhibitory concentration (IC50) of 299 nM.
Same read-out and setting: with `O=C(Nc1ccc(-n2nc(C(F)(F)F)cc2C(F)(F)F)cn1)c1ccccc1F` [Example 297, N-(5-(3,5-bis(trifluoromethyl)-1H-pyrazol-1-yl)-2-pyridinyl)-2-fluorobenzamide] the figure was 251 nM; with `Nc1cc(NC(=O)c2ccccc2F)ccc1-n1nc(C(F)(F)F)cc1C(F)(F)F` [Example 298, N-{3-amino-4-[3,5-bis(trifluoromethyl)-1H-pyrazol-1-yl]phenyl}-2-fluorobenzamide], 332 nM.
On the same count and under the same terms, the figure for `N#Cc1cc(NC(=O)c2ccccc2F)ccc1-n1nc(C(F)(F)F)cc1C(F)(F)F` [Example 299, N-(4-(3,5-bis(trifluoromethyl)-1H-pyrazol-1-yl)-3-cyanophenyl)-2-fluorobenzamide] is 269 nM.
Still for that read-out and setting: with `N#Cc1cc(C(F)(F)F)nn1-c1ccc(NC(=O)c2ccccc2F)cc1` [Example 300, N-{4-[5-cyano-3-(trifluoromethyl)-1H-pyrazol-1-yl]phenyl}-2-fluorobenzamide] the figure was 79 nM.
The compound `O=C(Nc1ccc(-n2nc(C(F)(F)F)cc2-c2ccco2)cc1)c1ccccc1F` [Example 301, 2-fluoro-N-(4-(5-(2-furyl)-3-(trifluoromethyl)-1H-pyrazol-1-yl)phenyl)benzamide] returned a 50% inhibitory concentration (IC50) of 232 nM.
Still for that read-out and setting: with `N#Cc1cc(C(F)(F)F)nn1-c1ccc(NC(=O)c2cc(F)cc(F)c2F)cc1` [Example 307, N-(4-(5-cyano-3-(trifluoromethyl)-1H-pyrazol-1-yl)phenyl)-2,3,5-trifluorobenzamide] the figure was 79 nM; with `O=C(Nc1ccc(-n2nc(C(F)(F)F)cc2-c2cccs2)cc1)c1ccccc1F` [Example 308, 2-fluoro-N-(4-(5-(2-thienyl)-3-(trifluoromethyl)-1H-pyrazol-1-yl)phenyl)benzamide], 309 nM; with `CSc1cc(C(F)(F)F)nn1-c1ccc(NC(=O)c2ccccc2F)cc1` [Example 309, 2-fluoro-N-(4-(5-(methylsulfanyl)-3-(trifluoromethyl)-1H-pyrazol-1-yl)phenyl)benzamide], 32 nM.
Still for that read-out and setting: with `COc1cc(C(F)(F)F)nn1-c1ccc(NC(=O)c2ccncc2)cc1` [Example 312, N-(4-(5-methoxy-3-(trifluoromethyl)-1H-pyrazol-1-yl)phenyl)isonicotinamide] the figure was 298 nM; with `O=C(Nc1ccc(-n2nc(-c3ccncc3)cc2C(F)(F)F)cc1)c1ccncc1F` [Example 318, 3-fluoro-N-(4-(3-(4-pyridinyl)-5-(trifluoromethyl)-1H-pyrazol-1-yl)phenyl)isonicotinamide], 258 nM; with `CCOc1cc(C(F)(F)F)nn1-c1ccc(NC(=O)c2cccnc2F)cc1` [Example 319, N-(4-(5-ethoxy-3-(trifluoromethyl)-1H-pyrazol-1-yl)phenyl)-2-fluoronicotinamide], 219 nM.
The same measure, in the same setting: the figure for `O=C(Nc1ccc(-n2nc(C(F)(F)F)cc2OC(F)F)cc1)c1ccncc1` [Example 322, N-(4-(5-(difluoromethoxy)-3-(trifluoromethyl)-1H-pyrazol-1-yl)phenyl)isonicotinamide] is 238 nM; for `O=C(Nc1ccc(-n2nc(C(F)(F)F)cc2Cl)cc1)c1cccnc1F` [Example 325, N-(4-(5-chloro-3-(trifluoromethyl)-1H-pyrazol-1-yl)phenyl)-2-fluoronicotinamide] it is 172 nM.
In the case of `O=C(Nc1ccc(-n2nc(C(F)(F)F)cc2[N+](=O)[O-])cc1)c1ccccc1F` [Example 326, 2-fluoro-N-(4-(5-nitro-3-(trifluoromethyl)-1H-pyrazol-1-yl)phenyl)benzamide], inhibition was half-maximal at 166 nM (IC50).
Same read-out and setting: the figure for `O=C(Nc1ccc(-n2nc(-c3cccnc3)cc2C(F)F)cc1)c1ccncc1F` [Example 329, N-(4-(5-(difluoromethyl)-3-(3-pyridinyl)-1H-pyrazol-1-yl)phenyl)-3-fluoroisonicotinamide] is 303 nM.
Same read-out and setting: the figure for `N#Cc1cc(-c2ccccn2)nn1-c1ccc(NC(=O)c2ccncc2F)cc1` [Example 330, N-(4-(5-cyano-3-(2-pyridinyl)-1H-pyrazol-1-yl)phenyl)-3-fluoroisonicotinamide] is 169 nM; for `Cc1nnsc1C(=O)Nc1ccc(-n2nc(-c3cccnc3)cc2C#N)cc1` [Example 331, N-(4-(5-cyano-3-(3-pyridinyl)-1H-pyrazol-1-yl)phenyl)-4-methyl-1,2,3-thiadiazole-5-carboxamide] it is 220 nM; for `O=C(Nc1ccc(-n2nc(C(F)(F)F)cc2Br)cc1)c1ccncc1F` [Example 332, N-(4-(5-bromo-3-(trifluoromethyl)-1H-pyrazol-1-yl)phenyl)-3-fluoroisonicotinamide] it is 44 nM.
Same read-out and setting: the figure for `O=C(Nc1ccc(-n2nc(C(F)(F)F)cc2[N+](=O)[O-])cc1)c1ccncc1F` [Example 333, 3-fluoro-N-(4-(5-nitro-3-(trifluoromethyl)-1H-pyrazol-1-yl)phenyl)isonicotinamide] is 410 nM; for `O=C(Nc1ccc(-n2nc(-c3cccnc3)cc2[N+](=O)[O-])cc1)c1ccncc1F` [Example 334, 3-fluoro-N-{4-[5-nitro-3-(3-pyridinyl)-1H-pyrazol-1-yl]phenyl}isonicotinamide] it is 297 nM.
The compound `N#Cc1cc(-c2nccs2)nn1-c1ccc(NC(=O)c2ccncc2F)cc1` [Example 338, N-(4-(5-cyano-3-(1,3-thiazol-2-yl)-1H-pyrazol-1-yl)phenyl)-3-fluoroisonicotinamide] gave an IC50 of 164 nM.
With `O=C(Nc1ccc(-n2nc(-c3cncc(Br)c3)cc2OC(F)F)cc1)c1ccncc1F` [Example 339, N-(4-(3-(5-bromo-3-pyridinyl)-5-(difluoromethoxy)-1H-pyrazol-1-yl)phenyl)-3-fluoroisonicotinamide], the IC50 turned out to be 369 nM.
Consider `Cc1nnsc1C(=O)Nc1ccc(-n2nc(-c3nccs3)cc2C(F)(F)F)cc1` [Example 342, 4-methyl-N-(4-(3-(1,3-thiazol-2-yl)-5-(trifluoromethyl)-1H-pyrazol-1-yl)phenyl)-1,2,3-thiadiazole-5-carboxamide], for which half-maximal inhibition (IC50) was put at 238 nM.
The same measure, in the same setting: with `Cc1nc(C)c(-c2cc(C(F)(F)F)n(-c3ccc(NC(=O)c4ccncc4F)cc3)n2)s1` [Example 343, N-(4-(3-(2,4-dimethyl-1,3-thiazol-5-yl)-5-(trifluoromethyl)-1H-pyrazol-1-yl)phenyl)-3-fluoroisonicotinamide] the figure was 250 nM; with `Cn1ccc(-c2cc(C(F)(F)F)nn2-c2ccc(NC(=O)c3ccncc3F)cc2)c1` [Example 344, 3-fluoro-N-(4-(5-(1-methyl-1H-pyrrol-3-yl)-3-(trifluoromethyl)-1H-pyrazol-1-yl)phenyl)isonicotinamide], 251 nM.

The same assay, now with this note: concanavalin-A stimulated human PBMC, tritiated thymidine.
Regarding `Cc1nnsc1C(=O)Nc1ccc(-n2nc(-c3cccnc3)cc2[N+](=O)[O-])cc1` [Example 337, N-[4-[3-(3-pyridyl)-5-nitro-1H-pyrazol-1-yl]phenyl]-4-methylthiadiazol-5-yl-carboxamide], the IC50 was found to be 221 nM.
Still for that read-out and setting: the figure for `N#Cc1cc(-c2nccs2)nn1-c1ccc(NC(=O)c2ccncc2F)cc1` [Example 341, N-(4-(5-cyano-3-(1,3-thiazol-2-yl)-1H-pyrazol-1-yl)phenyl)-3-fluoroisonicotinamide] is 191 nM.
